Laboratory results as given in PubChem BioAssay AID2060622 (Molecular Pharmacology Branch, DTP, NCI, 2025).
Several values for one entry are separate records, joined by “and”; a condition that tells them apart may be missing. Equal values may be shown once.

Test system: 242566-281-R-J2-PDC complex spheroid viability
Experiment: Anticancer human tumor 242566-281-R-J2-PDC patient-derived pancreatic carcinoma cell line growth inhibition [CLK]
Settings: for viability, T/C: stronger effect = lower value
Description: A high-throughput screen of multi-cell type tumor spheroids was designed to identify active combinations of […] and targeted small molecules. Complex spheroids include a stromal component modeled by human endothelial cells (HUVEC) and fibroblasts modeled by human mesenchymal stem cells (MSCs). The concentration ranges selected for each drug and investigational agent were based upon clinically achievable concentrations if the clinical Cmax of the agent was known.
Compounds. The drugs and investigational agents: cirtuvivint (SM08502; NSC835563), CC-671 (NSC850746), vemurafenib (NSC761431), tapotoclax (NSC804041), sotorasib (NSC818433), adagrasib (NSC831453), MRTX-1133 (NSC836407), BAY2416964 (NSC825713), copanlisib (NSC816437), inavolisib (NSC800729), abemaciclib (NSC768073), osimertinib (NSC779217), entinostat (NSC756642), eltanexor (KPT-8602, NSC794443), venetoclax (NSC766270), ceralasertib (NSC777638), bortezomib (NSC756655), olaparib (NSC753686), talazoparib (NSC767125), alisertib (NSC759677), peposertib (NSC802822), gemcitabine (NSC613327), 5-fluorouracil (NSC19893), SN-38 (NSC673596), oxaliplatin (NSC266046), paclitaxel (NSC125973), and doxorubicin (NSC123127), were obtained from the National Cancer Institute (NCI) Developmental Therapeutics Program Chemical Repository. The FDA-approved anticancer drug set is available from the Developmental Therapeutics Program at https://dtp.cancer.gov/organization/dscb/obtaining/available plates.htm. […] The stock solutions were prepared in dimethyl sulfoxide (DMSO, Sigma-Aldrich, St. Louis, MO, cat. D2650), except for the platinum complexes which were prepared in saline (Quality Biological, Gaithersburg, MD, cat. 114-055-101), at 800-fold the tested concentration and stored at -70 degrees C prior to their use. All drugs and investigational agents were tested over a range starting from a high concentration at or near the clinical Cmax and decreasing in half-log increments. If the clinical Cmax for an agent had not been determined, the highest concentration tested was 10 microM.
Cell Culture. All cells were maintained in an incubator at 37 degrees C and 5% CO2 with 95% humidity. The PDC lines were cultured according to standard operating procedures established by the NCI PDMR. Briefly, all PDCs were thawed and cultured in Matrigel-coated flasks prepared with a working solution of 1X Ham's F-12 nutrient mix, without supplementation (Invitrogen, Waltham, MA, cat. 11765054), 100 U/mL penicillin-streptomycin (Invitrogen, cat. 15140122), and 2.5% Matrigel (Corning Inc., Corning, NY, cat. 354248) for the first three passages. The 947758-054-R-J2-PDC line was cultured in 6B/Colon 1A media, which includes advanced DMEM/F-12 (Thermo Fisher Scientific, cat. 12634028), 10 mM HEPES (Thermo Fisher Scientific, cat. 15630080), 1X GlutaMAX supplement (Thermo Fisher Scientific, cat. 35050061), 0.1 mg/mL primocin (InvivoGen, cat. ant-pm-2), 10% defined fetal bovine serum, heat inactivated (HyClone Laboratories Inc., cat. SH30070.03HI), 1.25 mM N-Acetyl-L-cysteine (Sigma-Aldrich, cat. A9165), 10 mM nicotinamide (Sigma-Aldrich, cat. N0636), 1X B-27 supplement (Thermo Fisher Scientific, cat. 17504044), 1X N-2 supplement (Thermo Fisher Scientific, cat. 17502048), and 10 microM Y-27632 dihydrochloride (Tocris Bioscience, cat. 1254). The 876862-298-R-J1-PDC was cultured in 6E media, which includes all 6B/Colon 1A media components plus 50% L-WRN conditioned media (ATCC, cat. CRL-3276), 50 ng/mL recombinant human EGF recombinant protein (hEGF; Thermo Fisher Scientific, cat. PHG0311), 10 ng/mL recombinant human fibroblast growth factor 10 (hGFG-10; PeproTech, cat. 100-26), 1 ng/mL recombinant human fibroblast growth factor 2 (hFGF-2; PeproTech, cat. 100-18B), and 1 µM prostaglandin E2 (PGE2; Tocris, cat. 2296). The 227483-062-R1-J1-PDC line was cultured in Panc media, containing all 6E components except hFGF-2, with the addition of 500 nM SB-431542 (Selleckchem, cat. S1067) and 10 nM gastrin (Tocris, cat. 3006). […]

[1] = curve of first compound, second compound 0.0316 µM
[2] = curve of first compound, second compound 0.1 µM
[3] = curve of first compound, second compound 0.316 µM
[4] = curve of first compound, second compound 1 µM
[5] = curve of first compound, second compound 3.16 µM
[6] = curve of first compound, second compound 10 µM
[7] = second compound 0.0316 µM, first compound 0.0316 µM
[8] = second compound 0.0316 µM, first compound 0.1 µM
[9] = second compound 0.0316 µM, first compound 0.316 µM
[10] = second compound 0.0316 µM, first compound 1 µM
[11] = second compound 0.0316 µM, first compound 3.16 µM
[12] = second compound 0.0316 µM, first compound 10 µM
[13] = second compound 0.1 µM, first compound 0.0316 µM
[14] = second compound 0.1 µM, first compound 0.1 µM
[15] = second compound 0.1 µM, first compound 0.316 µM
[16] = second compound 0.1 µM, first compound 1 µM
[17] = second compound 0.1 µM, first compound 3.16 µM
[18] = second compound 0.1 µM, first compound 10 µM
[19] = second compound 0.316 µM, first compound 0.0316 µM
[20] = second compound 0.316 µM, first compound 0.1 µM
[21] = second compound 0.316 µM, first compound 0.316 µM
[22] = second compound 0.316 µM, first compound 1 µM
[23] = second compound 0.316 µM, first compound 3.16 µM
[24] = second compound 0.316 µM, first compound 10 µM
[25] = second compound 1 µM, first compound 0.0316 µM
[26] = second compound 1 µM, first compound 0.1 µM
[27] = second compound 1 µM, first compound 0.316 µM
[28] = second compound 1 µM, first compound 1 µM
[29] = second compound 1 µM, first compound 3.16 µM
[30] = second compound 1 µM, first compound 10 µM
[31] = second compound 3.16 µM, first compound 0.0316 µM
[32] = second compound 3.16 µM, first compound 0.1 µM
[33] = second compound 3.16 µM, first compound 0.316 µM
[34] = second compound 3.16 µM, first compound 1 µM
[35] = second compound 3.16 µM, first compound 3.16 µM
[36] = second compound 3.16 µM, first compound 10 µM
[37] = second compound 10 µM, first compound 0.0316 µM
[38] = second compound 10 µM, first compound 0.1 µM
[39] = second compound 10 µM, first compound 0.316 µM
[40] = second compound 10 µM, first compound 1 µM
[41] = second compound 10 µM, first compound 3.16 µM
[42] = second compound 10 µM, first compound 10 µM
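Also: spheroids exposed to compounds for 7 days before readout.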
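For viability, T/C in this document: 100% = DMSO vehicle control wells.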

C=CC(=O)N1CCN(c2nc(=O)n(-c3c(C)ccnc3C(C)C)c3nc(-c4c(O)cccc4F)c(F)cc23)C(C)C1 (centres undefined) + CN1CCN(c2cc(C(=O)Nc3cc4cc(-c5cnn(C)c5)ccc4cn3)ccn2)CC1
IC50 [1]: > 10000 nM
IC50 [2]: > 10000 nM
IC50 [3]: < 31.6 nM
IC50 [4]: < 31.6 nM
IC50 [5]: < 31.6 nM
IC50 [6]: < 31.6 nM
viability, T/C [7]: 113%
viability, T/C [8]: 105%
viability, T/C [9]: 102%
viability, T/C [10]: 117%
viability, T/C [11]: 103%
viability, T/C [12]: 72.9%
viability, T/C [13]: 106%
viability, T/C [14]: 94.3%
viability, T/C [15]: 81.6%
viability, T/C [16]: 109%
viability, T/C [17]: 105%
viability, T/C [18]: 67.5%
viability, T/C [19]: 47.2%
viability, T/C [20]: 47.3%
viability, T/C [21]: 40.8%
viability, T/C [22]: 45.2%
viability, T/C [23]: 48.2%
viability, T/C [24]: 23.4%
viability, T/C [25]: 5.06%
viability, T/C [26]: 5.31%
viability, T/C [27]: 6.97%
viability, T/C [28]: 9.26%
viability, T/C [29]: 11.1%
viability, T/C [30]: 6.36%
viability, T/C [31]: 7.67%
viability, T/C [32]: 8.25%
viability, T/C [33]: 11.1%
viability, T/C [34]: 11.7%
viability, T/C [35]: 11.6%
viability, T/C [36]: 8.7%
viability, T/C [37]: 2.18%
viability, T/C [38]: 2.58%
viability, T/C [39]: 2.81%
viability, T/C [40]: 4.46%
viability, T/C [41]: 4.9%
viability, T/C [42]: 2.7%

CC(CO)NC(=O)c1cc(-c2ccc(Cl)cc2)nn(-c2cnn(C)c2)c1=O (centres undefined) + CNC(=O)c1ccc(Nc2nc(OC3CCCC3)c3c(-c4ccc5nc(C)oc5c4)c[nH]c3n2)c(OC)c1
IC50 [1]: > 10000 nM
IC50 [2]: > 10000 nM
IC50 [3]: > 10000 nM
IC50 [4]: > 10000 nM
IC50 [5]: > 10000 nM
IC50 [6]: > 10000 nM
viability, T/C [7]: 112%
viability, T/C [8]: 105%
viability, T/C [9]: 103%
viability, T/C [10]: 124%
viability, T/C [11]: 110%
viability, T/C [12]: 104%
viability, T/C [13]: 105%
viability, T/C [14]: 107%
viability, T/C [15]: 93%
viability, T/C [16]: 102%
viability, T/C [17]: 103%
viability, T/C [18]: 96.3%
viability, T/C [19]: 96.1%
viability, T/C [20]: 90.7%
viability, T/C [21]: 83.1%
viability, T/C [22]: 95.9%
viability, T/C [23]: 101%
viability, T/C [24]: 86%
viability, T/C [25]: 76%
viability, T/C [26]: 65%
viability, T/C [27]: 75.6%
viability, T/C [28]: 79.2%
viability, T/C [29]: 86.2%
viability, T/C [30]: 89.4%
viability, T/C [31]: 60.1%
viability, T/C [32]: 62.5%
viability, T/C [33]: 59.1%
viability, T/C [34]: 58.9%
viability, T/C [35]: 63%
viability, T/C [36]: 69.2%
viability, T/C [37]: 55.6%
viability, T/C [38]: 55.8%
viability, T/C [39]: 54.1%
viability, T/C [40]: 58.8%
viability, T/C [41]: 62.7%
viability, T/C [42]: 70.2%

O=c1[nH]cc(F)c(=O)[nH]1 + CN1CCN(c2cc(C(=O)Nc3cc4cc(-c5cnn(C)c5)ccc4cn3)ccn2)CC1
IC50 [1]: > 10000 nM
IC50 [2]: 5960 nM
IC50 [3]: < 31.6 nM
IC50 [4]: < 31.6 nM
IC50 [5]: < 31.6 nM
IC50 [6]: < 31.6 nM
viability, T/C [7]: 109%
viability, T/C [8]: 101%
viability, T/C [9]: 103%
viability, T/C [10]: 77%
viability, T/C [11]: 61.4%
viability, T/C [12]: 56.1%
viability, T/C [13]: 97.8%
viability, T/C [14]: 81.2%
viability, T/C [15]: 81.7%
viability, T/C [16]: 69.8%
viability, T/C [17]: 54.8%
viability, T/C [18]: 44.9%
viability, T/C [19]: 38.5%
viability, T/C [20]: 35.3%
viability, T/C [21]: 30.8%
viability, T/C [22]: 25.4%
viability, T/C [23]: 24.9%
viability, T/C [24]: 18.9%
viability, T/C [25]: 4.56%
viability, T/C [26]: 4.75%
viability, T/C [27]: 3.93%
viability, T/C [28]: 4.22%
viability, T/C [29]: 3.79%
viability, T/C [30]: 3.85%
viability, T/C [31]: 7.11%
viability, T/C [32]: 6.79%
viability, T/C [33]: 6.18%
viability, T/C [34]: 6.26%
viability, T/C [35]: 5.72%
viability, T/C [36]: 5.29%
viability, T/C [37]: 1.55%
viability, T/C [38]: 1.68%
viability, T/C [39]: 1.19%
viability, T/C [40]: 1.49%
viability, T/C [41]: 1.43%
viability, T/C [42]: 1.2%

COc1cccc2c1C(=O)c1c(O)c3c(c(O)c1C2=O)CC(O)(C(=O)CO)CC3OC1CC(N)C(O)C(C)O1 (centres undefined)
viability, T/C (compound 0.0316 µM): 66.3% and 79%
viability, T/C (compound 0.1 µM): 41.5% and 64.7%
viability, T/C (compound 0.316 µM): 15.3% and 35.8%
viability, T/C (compound 1 µM): 7.56% and 20.2%
viability, T/C (compound 3.16 µM): 1.88% and 6.69%
viability, T/C (compound 10 µM): 1.33% and 1.37%
IC50 (curve of compound): 66.6 nM and 183 nM

CN1CCN(c2cc(C(=O)Nc3cc4cc(-c5cnn(C)c5)ccc4cn3)ccn2)CC1
viability, T/C (compound 0.0316 µM): 101% [middle of 12 runs]
viability, T/C (compound 0.1 µM): 90.2% [middle of 12 runs]
viability, T/C (compound 1 µM): 4.87% [middle of 12 runs]
viability, T/C (compound 3.16 µM): 7.54% [middle of 12 runs]
viability, T/C (compound 10 µM): 1.65% [middle of 11 runs]
IC50 (compound alone, run of 07/31/2023): 230 nM [middle of 12 runs]
